Data published in patent US4751215A, “Process for increasing the sexual activity of birds and useful domestic mammals and for preparing spermatozoa suitable to their propagation” (INNOFINANCE Altalanos Innovacios Penzintezet, priority 1985, dated 1988).

Legend:
Assay type in all cases: in vivo
[1] = test system: blood plasma testosterone level; experiment: Effect of various doses on blood plasma testosterone level of domestic cock (Table 1)
Source text: In Table 1, the relation of the doses of the compounds of general formula (I) to the blood plasma testosterone level of the treated animals is illustrated in case of domestic cocks.

male turkey = experiment: Effect of interval between three intramuscular injections on sperm production of male turkey (Table 2); conditions: three i.m. injections, 1 μg/kg
Source text: In Table 2, the influence on the sperm production of the interval kept between the consecutive treatments is shown on male turkeys.

male turkeys [2] = experiment: Permanent increase in sperm production of male turkeys bred on a large scale (Example 1, FIG. 4); conditions: 0.5 μg/kg i.m. every 2 days, 3 times
Method: (§1) 0.5 μg/kg of D-Phe^6 -GnRH analogue was intramuscularly administered to sexually mature male turkeys every 2 days, altogether 3 times. On the 20th day following treatment, the sperm production reached an increase of 44% and remained at a higher level, as compared to the control, for about 1 month (FIG. 4).
(§2) One month and half after the first treatment, the same animals were similarly treated with 0.5 μg/kg of (Asp-α-diethylamide)^6,desGly^10 -GnRH ethylamide analogue every 2 days, altogether 3 times.

testosterone level = experiment: Testosterone level of treated male turkeys (Table 3); conditions: Treated (n = 15)
Method: as §1, §2
The rise of the LH level of the blood was followed by an increase in the testosterone level (Table 3).

male turkeys [3] = experiment: Effect of gonadoliberin analogues on the sperm production of male turkeys (Table 5)
Source text: In a further experiment, the sperm production of male turkeys was raised by administering the following four compounds: […]

bull = experiment: Enhancement of the sexual activity of a bull; conditions: 300 μg each, 3 times
Method: A 2-year old bull of 1010 kg weight, of breeding condition and correspondingly having a good muscular system, good leg construction and a definitely male sexual character was set to breeding in 1985. On October 16 and 23 as well as on Nov. 1, 1985 test coverings were carried out on a rutting female cattle and on a phantom bull. […] Diagnosis stated by the veterinarian specialist: importentia coeundi. The bull was treated on November 29 as well as on Dec. 2 and 4, 1986 altogether 3 times with 300 μg each of D-[…] -GnRH analogue. On Dec. […] 7, 1986. On Jan. 21, 1986 the bull sprung onto a cow being after rutting. The sexual potency of the animal was unobjectionable even after 5 weeks following the treatment.

CC(C)C[C@H](NC(=O)[C@@H](Cc1ccccc1)NC(=O)[C@H](Cc1ccc(O)cc1)NC(=O)[C@H](CO)NC(=O)[C@H](Cc1c[nH]c2ccccc12)NC(=O)[C@H](Cc1c[nH]cn1)NC(=O)[C@@H]1CCC(=O)N1)C(=O)N[C@@H](CCCNC(=N)N)C(=O)N1CCC[C@H]1C(=O)NCC(N)=O [Compound "A", D-Phe^6 -GnRH]
Testosterone level of the blood plasma ([1]; dose 0.01 μg/kg, after 0 minutes): 1.7 (0.7) ng/ml | Testosterone level of the blood plasma ([1]; dose 0.01 μg/kg, after 30 minutes): 1.6 (1.3) ng/ml | Testosterone level of the blood plasma ([1]; dose 0.01 μg/kg, after 60 minutes): 1.5 (1.0) ng/ml | Testosterone level of the blood plasma ([1]; dose 0.01 μg/kg, after 120 minutes): 1.4 (0.6) ng/ml | Testosterone level of the blood plasma ([1]; dose 0.05 μg/kg, after 0 minutes): 1.4 (0.7) ng/ml | Testosterone level of the blood plasma ([1]; dose 0.05 μg/kg, after 30 minutes): 1.7 (1.2) ng/ml | Testosterone level of the blood plasma ([1]; dose 0.05 μg/kg, after 60 minutes): 1.5 (1.2) ng/ml | Testosterone level of the blood plasma ([1]; dose 0.05 μg/kg, after 120 minutes): 1.9 (0.8) ng/ml | Testosterone level of the blood plasma ([1]; dose 0.1 μg/kg, after 0 minutes): 1.0 (0.2) ng/ml | Testosterone level of the blood plasma ([1]; dose 0.1 μg/kg, after 30 minutes): 3.4 (1.9) ng/ml | Testosterone level of the blood plasma ([1]; dose 0.1 μg/kg, after 60 minutes): 2.7 (1.1) ng/ml | Testosterone level of the blood plasma ([1]; dose 0.1 μg/kg, after 120 minutes): 2.0 (0.8) ng/ml | Testosterone level of the blood plasma ([1]; dose 0.3 μg/kg, after 0 minutes): 2.1 (0.7) ng/ml | Testosterone level of the blood plasma ([1]; dose 0.3 μg/kg, after 30 minutes): 3.9 (0.6) ng/ml | Testosterone level of the blood plasma ([1]; dose 0.3 μg/kg, after 60 minutes): 4.2 (1.2) ng/ml | Testosterone level of the blood plasma ([1]; dose 0.3 μg/kg, after 120 minutes): 2.6 (0.5) ng/ml | Testosterone level of the blood plasma ([1]; dose 0.5 μg/kg, after 0 minutes): 2.5 (1.0) ng/ml | Testosterone level of the blood plasma ([1]; dose 0.5 μg/kg, after 30 minutes): 6.5 (0.5) ng/ml | Testosterone level of the blood plasma ([1]; dose 0.5 μg/kg, after 60 minutes): 5.3 (1.2) ng/ml | Testosterone level of the blood plasma ([1]; dose 0.5 μg/kg, after 120 minutes): 3.9 (1.5) ng/ml | Testosterone level of the blood plasma ([1]; dose 1.0 μg/kg, after 0 minutes): 1.5 (0.8) ng/ml | Testosterone level of the blood plasma ([1]; dose 1.0 μg/kg, after 30 minutes): 7.2 (3.5) ng/ml | Testosterone level of the blood plasma ([1]; dose 1.0 μg/kg, after 60 minutes): 7.1 (3.6) ng/ml | Testosterone level of the blood plasma ([1]; dose 1.0 μg/kg, after 120 minutes): 3.7 (1.2) ng/ml | Testosterone level of the blood plasma ([1]; dose 3.0 μg/kg, after 0 minutes): 1.9 (0.3) ng/ml | Testosterone level of the blood plasma ([1]; dose 3.0 μg/kg, after 30 minutes): 6.2 (2.4) ng/ml | Testosterone level of the blood plasma ([1]; dose 3.0 μg/kg, after 60 minutes): 5.2 (1.7) ng/ml | Testosterone level of the blood plasma ([1]; dose 3.0 μg/kg, after 120 minutes): 3.0 (1.1) ng/ml | Testosterone level of the blood plasma ([1]; dose 5.0 μg/kg, after 0 minutes): 2.1 (1.2) ng/ml | Testosterone level of the blood plasma ([1]; dose 5.0 μg/kg, after 30 minutes): 3.6 (2.4) ng/ml | Testosterone level of the blood plasma ([1]; dose 5.0 μg/kg, after 60 minutes): 2.7 (0.6) ng/ml | Testosterone level of the blood plasma ([1]; dose 5.0 μg/kg, after 120 minutes): 1.7 (0.9) ng/ml | Sperm volume (male turkey; interval between treatments 24 hour, on day 0): 0.18 (0.05) ml | Sperm volume (male turkey; interval between treatments 24 hour, on the 20th day): 0.21 (0.10) ml | Sperm volume (male turkey; interval between treatments 48 hour, on day 0): 0.19 (0.07) ml | Sperm volume (male turkey; interval between treatments 48 hour, on the 20th day): 0.35 (0.12) ml | Sperm volume (male turkey; interval between treatments 72 hour, on day 0): 0.16 (0.08) ml | Sperm volume (male turkey; interval between treatments 72 hour, on the 20th day): 0.25 (0.11) ml | Sperm volume (male turkey; interval between treatments 144 hour, on day 0): 0.21 (0.07) ml | Sperm volume (male turkey; interval between treatments 144 hour, on the 20th day): 0.24 (0.09) ml | time sperm production remained at a higher level as compared to the control (male turkeys [2]): about 1 month | increase of sperm production (male turkeys [2]; on the 20th day following treatment): 44% | Testosterone (testosterone level; sampling May 2): 2.43 ± 1.22 ng/mL | Testosterone (testosterone level; sampling May 23): 4.06 ± 1.62 ng/mL | Sperm production (male turkeys [3]; after 30 days): 0.34 ml/animal | Sperm production (male turkeys [3]; after 60 days): 0.39 ml/animal | Sperm production (male turkeys [3]; at the beginning of the experiment): 0.27 ml/animal | sexual potency of the animal (bull; 5 weeks following the treatment): unobjectionable | covering behaviour after treatment (bull; bull with impotentia coeundi, Dec. 6, 1985): covered two times a rutting cow
